According to US20140005163A1 (NOVARTIS AG, priority 2010, published 2014):

Legend:
mTOR = biological target: T1, mTOR (Homo sapiens, UniProt P42345); experiment: Biochemical assay for m-TOR by TR-FRET; conditions: 8 μM ATP, 400 nM GFP-4EBP1, 0.5 nM mTOR
T1 construct: purchased Invitrogen Corporation (Carlsbad/CA, USA) PV4753
Outline: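 Enzyme 0.5 nM, GFP-4EBP1 400 nM, ATP 8 μM (all final); 50 mM HEPES pH 7.5, 10 mM MnCl2, 1 mM DTT; rt. Detection: Tb-α-p4EBP1 [pT46] 0.5 nM in EDTA, TR-FRET, 15 min. Reference compound on every plate, 16-point duplicate dilutions.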

[1] = system: PKB Ser473 phosphorylation in Rat1-myr-HA-p110 delta cells; experiment: Reverse protein array assay, PKB Ser473 phosphorylation in Rat1-myr-p110 delta cells; type: cell-based; conditions: read-out: p-PKB IC50
Outline: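 Compound exposure lasted 30 min in Rat1 cells bearing membrane-targeted HA-p110 isoforms, using 8 serial concentrations. Arrayed lysates, each spotted at four dilutions, gave relative fluorescence signals for phospho-Ser473 PKB.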

[2] = system: S6 Ribosomal Protein phosphorylation Ser235/236 in TSC1 null mouse embryo fibroblast (MEF) cells; experiment: Reverse protein array assay, S6 Ribosomal Protein phosphorylation Ser235/236 in TSC1 null MEF cells; type: cell-based; conditions: 1 h, pS6 ribosomal protein Ser235/236, 60 minutes incubation, read-out: p-S6 IC50
Outline: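 TSC1−/− MEFs, seeded and held ≥20 h at 37 °C/5% CO2, were exposed to 8-step serial compound dilutions (0.02% DMSO final; DMSO vehicle control) for 60 min at 37 °C. Cells were then lysed on ice for 10 min and lysates spotted onto reverse protein array chips.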

T1 sequence (P42345 1360-2549 limits assumed): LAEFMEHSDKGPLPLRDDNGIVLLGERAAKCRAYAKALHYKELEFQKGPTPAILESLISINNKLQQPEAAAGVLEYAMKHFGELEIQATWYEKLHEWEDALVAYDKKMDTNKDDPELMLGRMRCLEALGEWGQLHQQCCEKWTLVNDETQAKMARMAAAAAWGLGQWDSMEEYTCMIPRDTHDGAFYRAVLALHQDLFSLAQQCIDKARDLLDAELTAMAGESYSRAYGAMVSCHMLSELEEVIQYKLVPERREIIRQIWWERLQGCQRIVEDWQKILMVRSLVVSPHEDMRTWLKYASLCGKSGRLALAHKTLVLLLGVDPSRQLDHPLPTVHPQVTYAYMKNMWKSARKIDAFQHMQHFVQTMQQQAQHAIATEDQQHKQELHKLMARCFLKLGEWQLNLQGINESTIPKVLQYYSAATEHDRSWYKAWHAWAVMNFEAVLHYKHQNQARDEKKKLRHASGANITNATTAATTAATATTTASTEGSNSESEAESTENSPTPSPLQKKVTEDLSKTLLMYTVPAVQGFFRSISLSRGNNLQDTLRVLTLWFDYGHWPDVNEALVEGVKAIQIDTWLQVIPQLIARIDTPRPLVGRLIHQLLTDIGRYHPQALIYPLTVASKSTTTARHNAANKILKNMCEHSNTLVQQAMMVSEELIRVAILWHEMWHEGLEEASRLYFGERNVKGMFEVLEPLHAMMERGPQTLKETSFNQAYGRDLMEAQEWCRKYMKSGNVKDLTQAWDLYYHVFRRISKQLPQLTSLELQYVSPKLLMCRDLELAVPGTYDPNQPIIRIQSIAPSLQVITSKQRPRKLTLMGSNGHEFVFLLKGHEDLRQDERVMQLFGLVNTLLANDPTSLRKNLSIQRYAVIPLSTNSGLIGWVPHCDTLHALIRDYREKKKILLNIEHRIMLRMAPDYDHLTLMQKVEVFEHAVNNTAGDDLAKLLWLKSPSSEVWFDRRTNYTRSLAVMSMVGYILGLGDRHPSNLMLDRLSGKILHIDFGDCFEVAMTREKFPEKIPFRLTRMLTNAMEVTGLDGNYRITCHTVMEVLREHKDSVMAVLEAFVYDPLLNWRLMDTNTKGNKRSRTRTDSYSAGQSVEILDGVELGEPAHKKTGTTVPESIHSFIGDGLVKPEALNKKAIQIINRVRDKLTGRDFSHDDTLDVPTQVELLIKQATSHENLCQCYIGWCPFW

Row | SMILES | IC50 (mTOR) | IC50 [1] | IC50 [2]
1 | COc1ccc(-c2ccc3ncc4c(c3c2)n(-c2cc(C)nn2C)c(=O)n4C)cc1OC [Example 1.4, 8-(3,4-Dimethoxy-phenyl)-1-(2,5-dimethyl-2H-pyrazol-3-yl)-3-methyl-1,3-dihydro-imidazo[4,5-c]quinolin-2-one] | 87 nM | 131 nM | 
2 | COc1ccc(-c2ccc3ncc4c(c3c2)n(-c2cn(C(C)C)nc2C)c(=O)n4C)cc1OC [Example 1.5, 8-(3,4-Dimethoxy-phenyl)-1-(1-isopropyl-3-methyl-1H-pyrazol-4-yl)-3-methyl-1,3-dihydro-imidazo[4,5-c]quinolin-2-one] | 61 nM | 50 nM | < 5 nM
3 | CCn1cc(-n2c(=O)n(C)c3cnc4ccc(-c5ccc(OC)c(OC)c5)cc4c32)c(C)n1 [Example 1.6, 8-(3,4-Dimethoxy-phenyl)-1-(1-ethyl-3-methyl-1H-pyrazol-4-yl)-3-methyl-1,3-dihydro-imidazo[4,5-c]quinolin-2-one] | 10 nM | 30 nM | < 5 nM
4 | COc1ccc(-c2ccc3ncc4c(c3c2)n(-c2cn(C)nc2C)c(=O)n4C)cn1 [Example 2.5, 1-(1,3-Dimethyl-1H-pyrazol-4-yl)-8-(6-methoxy-pyridin-3-yl)-3-methyl-1,3-dihydro-imidazo[4,5-c]quinolin-2-one] | 9 nM | 36 nM | 10 nM
5 | CCn1cc(-n2c(=O)n(C)c3cnc4ccc(-c5ccc(OC)nc5)cc4c32)c(C)n1 [Example 2.7, 1-(1-Ethyl-3-methyl-1H-pyrazol-4-yl)-8-(6-methoxy-pyridin-3-yl)-3-methyl-1,3-dihydro-imidazo[4,5-c]quinolin-2-one] | 13 nM | 62 nM | 6 nM
6 | CCOc1ccc(-c2ccc3ncc4c(c3c2)n(-c2c(C)nn(C)c2C)c(=O)n4C)cn1 [Example 3.3, 8-(6-Ethoxy-pyridin-3-yl)-3-methyl-1-(1,3,5-trimethyl-1H-pyrazol-4-yl)-1,3-dihydro-imidazo[4,5-c]quinolin-2-one] | 651 nM | 927 nM | 255 nM
7 | CCOc1ccc(-c2ccc3ncc4c(c3c2)n(-c2cn(C(C)C)nc2C)c(=O)n4C)cn1 [Example 3.7, 8-(6-Ethoxy-pyridin-3-yl)-1-(1-isopropyl-3-methyl-1H-pyrazol-4-yl)-3-methyl-1,3-dihydro-imidazo[4,5-c]quinolin-2-one] | 23 nM | 186 nM | 30 nM
8 | CCOc1ccc(-c2ccc3ncc4c(c3c2)n(-c2cn(CC(=O)N(C)C)nc2C)c(=O)n4C)cn1 [Example 3.9, 2-{4-[8-(6-Ethoxy-pyridin-3-yl)-3-methyl-2-oxo-2,3-dihydro-imidazo[4,5-c]quinolin-1-yl]-3-methyl-pyrazol-1-yl}-N,N-dimethyl-acetamide] | 11 nM | 50 nM | 5 nM
9 | Cc1nn(C)cc1-n1c(=O)n(C)c2cnc3ccc(-c4ccc(N(C)C)nc4)cc3c21 [Example 4.5, 8-(6-Dimethylamino-pyridin-3-yl)-1-(1,3-dimethyl-1H-pyrazol-4-yl)-3-methyl-1,3-dihydro-imidazo[4,5-c]quinolin-2-one] | 22 nM | 38 nM | 13 nM
10 | Cc1cc(-n2c(=O)n(C)c3cnc4ccc(-c5ccc(N(C)C)nc5)cc4c32)n(C)n1 [Example 4.6, 8-(6-Dimethylamino-pyridin-3-yl)-1-(2,5-dimethyl-2H-pyrazol-3-yl)-3-methyl-1,3-dihydro-imidazo[4,5-c]quinolin-2-one] | 42 nM | 205 nM | 
11 | Cc1nn(C)cc1-n1c(=O)n(C)c2cnc3ccc(-c4ccc(N5CCC5)nc4)cc3c21 [Example 5.1, 8-(6-Azetidin-1-yl-pyridin-3-yl)-1-(1,3-dimethyl-1H-pyrazol-4-yl)-3-methyl-1,3-dihydro-imidazo[4,5-c]quinolin-2-one] | 18 nM | 18 nM | 10 nM
12 | Cc1nn(C)cc1-n1c(=O)n(C)c2cnc3ccc(-c4ccc(C(N)=O)nc4)cc3c21 [Example 14, 5-[1-(1,3-Dimethyl-1H-pyrazol-4-yl)-3-methyl-2-oxo-2,3-dihydro-1H-imidazo[4,5-c]quinolin-8-yl]-pyridine-2-carboxylic acid amide] | 6 nM | 74 nM | 123 nM
13 | CNC(=O)c1ccc(-c2ccc3ncc4c(c3c2)n(-c2c(C)nn(C)c2C)c(=O)n4C)cn1 [Example 15.2, 5-[3-Methyl-2-oxo-1-(1,3,5-trimethyl-1H-pyrazo1-4-yl)-2,3-dihydro-1H-imidazo[4,5-c]quinolin-8-yl]-pyridine-2-carboxylic acid methylamide] | 335 nM |  | 
14 | Cc1nn(C)c(C)c1-n1c(=O)n(C)c2cnc3ccc(-c4ccc(CO)nc4)cc3c21 [Example 16.4, 8-(6-Hydroxymethyl-pyridin-3-yl)-3-methyl-1-(1,3,5-trimethyl-1H-pyrazol-4-yl)-1,3-dihydro-imidazo[4,5-c]quinolin-2-one] | 666 nM | 1510 nM | 
15 | Cn1cc(-n2c(=O)n(C)c3cnc4ccc(-c5ccc(CO)nc5)cc4c32)c(Cl)n1 [Example 16.5, 1-(3-chloro-1-methyl-1H-pyrazol-4-yl)-8-(6-hydroxymethyl-pyridin-3-yl)-3-methyl-1,3-dihydro-imidazo[4,5-c]quinolin-2-one] | 6 nM | 28 nM | 13 nM
16 | Cn1nccc1-n1c(=O)n(C)c2cnc3ccc(-c4ccc(NCCO)nc4)cc3c21 [Example 21.1, 8-[6-(2-Hydroxy-ethylamino)-pyridin-3-yl]-3-methyl-1-(2-methyl-2H-pyrazol-3-yl)-1,3-dihydro-imidazo[4,5-c]quinolin-2-one] | 201 nM | 906 nM | 
17 | Cc1cncc(-c2ccc3ncc4c(c3c2)n(-c2cn(C)nc2C)c(=O)n4C)c1 [Example 24, 1-(1,3-Dimethyl-1H-pyrazol-4-yl)-3-methyl-8-(5-methyl-pyridin-3-yl)-1,3-dihydro-imidazo[4,5-c]quinolin-2-one] | 37 nM | 170 nM | 9 nM
18 | CCOc1ccc(-c2ccc3ncc4c(c3c2)n(-c2c(C)nn(C)c2C)c(=O)n4C)cc1OCC [Example 27.2, 8-(3,4-Diethoxy-phenyl)-3-methyl-1-(1,3,5-trimethyl-1H-pyrazol-4-yl)-1,3-dihydro-imidazo[4,5-c]quinolin-2-one] | 363 nM | 508 nM | 234 nM
19 | CCOc1ccc(-c2ccc3ncc4c(c3c2)n(-c2cn(CC)nc2C)c(=O)n4C)cc1OC [Example 29.1, 8-(4-Ethoxy-3-methoxy-phenyl)-1-(1-ethyl-3-methyl-1H-pyrazol-4-yl)-3-methyl-1,3-dihydro-imidazo[4,5-c]quinolin-2-one] | 26 nM | 59 nM | 9 nM
20 | Cc1nn(C)cc1-n1c(=O)n(C)c2cnc3ccc(-c4cnc5ccccc5c4)cc3c21 [Example 38, 1-(1,3-Dimethyl-1H-pyrazol-4-yl)-3-methyl-8-quinolin-3-yl-1,3-dihydro-imidazo[4,5-c]quinolin-2-one] | 6 nM | 19 nM | 3 nM
21 | Cc1nn(C)cc1-n1c(=O)n(C)c2cnc3ccc(-c4cccc(S(=O)(=O)N5CCCC5)c4)cc3c21 [Example 44, 1-(1,3-Dimethyl-1H-pyrazol-4-yl)-3-methyl-8-[3-(pyrrolidine-1-sulfonyl)-phenyl]-1,3-dihydro-imidazo[4,5-c]quinolin-2-one] | 563 nM | 134 nM | 80 nM
22 | CCn1cc(-n2c(=O)n(C)c3cnc4ccc(-c5cncc(N)c5)cc4c32)c(C)n1 [Example 45.2, 8-(5-Amino-pyridin-3-yl)-1-(1-ethyl-3-methyl-1H-pyrazol-4-yl)-3-methyl-1,3-dihydro-imidazo[4,5-c]quinolin-2-one] | 24 nM | 203 nM | 72 nM
23 | Cc1nn(C)cc1-n1c(=O)n(C)c2cnc3ccc(-c4ccnc(OC(C)C)c4)cc3c21 [Example 92, 1-(1,3-Dimethyl-1H-pyrazol-4-yl)-8-(2-isopropoxy-pyridin-4-yl)-3-methyl-1,3-dihydro-imidazo[4,5-c]quinolin-2-one] | 376 nM |  | 75 nM
24 | COCc1ccc(-c2ccc3ncc4c(c3c2)n(-c2cn(C(C)C)nc2C)c(=O)n4C)cn1 [Example 105, 1-(1-Isopropyl-3-methyl-1H-pyrazol-4-yl)-8-(6-methoxymethyl-pyridin-3-yl)-3-methyl-1,3-dihydro-imidazo[4,5-c]quinolin-2-one] | 95 nM | 162 nM | 
25 | Cc1nn(C)c(C)c1-n1c(=O)n(C)c2cnc3ccc(-c4cnc(N)c(CO)c4)cc3c21 [Example 169.2, 8-(6-Amino-5-hydroxymethyl-pyridin-3-yl)-3-methyl-1-(1,3,5-trimethyl-1H-pyrazol-4-yl)-1,3-dihydro-imidazo[4,5-c]quinolin-2-one] | 149 nM | 869 nM | 
26 | CCNc1ncc(-c2ccc3ncc4c(c3c2)n(-c2c(C)nn(C)c2C)c(=O)n4C)cc1COC [Example 206.2, 8-(6-Ethylamino-5-methoxymethyl-pyridin-3-yl)-3-methyl-1-(1,3,5-trimethyl-1H-pyrazol-4-yl)-1,3-dihydro-imidazo[4,5-c]quinolin-2-one] |  | 479 nM | 77 nM
